How the values were obtained:
C. elegans [1] = details: in vivo
C. elegans [2] = details: in vivo; remark: listed apart in the source
[3] = molecular target: GluN1/GluN2A subtype receptors; details: read-out: mean IC50, GluN1/GluN2A; cited from earlier work
Opioid receptors (KOR) = details: read-out: Ki, Opioid receptors (KOR); competitive radioligand binding; cited from earlier work
Sigma2 receptor = details: read-out: Ki, Sigma2 receptor; competitive radioligand binding; cited from earlier work
[4] = tested on: maximal electroshock seizures; details: 100 and 300 mg/kg (i.p.); cited from earlier work
µ-opioid receptors (MOR) = details: read-out: Ki, µ-opioid receptors (MOR); competitive radioligand binding; cited from earlier work
[5] = tested on: vanadium-induced neurotoxicity; details: vanadium-exposed mice; cited from earlier work
C. elegans [6] = format: in vivo; details: ZA-II-05 1 mg/ml treated groups, 24 h
[7] = molecular target: GluN1/GluN2B subtype receptors; details: read-out: mean IC50, GluN1/GluN2B; cited from earlier work
[8] = tested on: organotypic hippocampal slice cultures; assay: organotypic hippocampal slice culture neuroprotection assay; format: cell-based, rat; details: ZA-II-05 100 µM, NMDA 10 µM insult, P < 0.05
C. elegans [9] = format: in vivo; details: ZA-II-05 1 mg/ml treated groups, 24 h; remark: listed apart in the source

In the case of `Fc1ccc(C2(NCCCOC3CCCCO3)CC3CCC2C3)cc1` (stereo not drawn) [ZA-II-05, 2-[4-Fluorophenyl]-N-(3-[tetrahydro-2H-pyran-2-yloxy]propyl) bicyclo [2.2.1] heptan-2-amine], the “growth pattern (body length, body wall)” value (C. elegans [1]) is listed as “reversed this effect”, the “mitochondrial superoxide (MitoSOX fluorescence), effect on vanadium-induced ROS” value (C. elegans [2]) is listed as “alleviated” and the IC50 [3] is listed as 518 nM. For the same molecule, the Ki (Opioid receptors (KOR)) was 361 nM, the Ki (Sigma2 receptor) was 5.5 nM and the “activity in maximal electroshock seizure (MES) assessment” value [4] was “activity”. The Ki (µ-opioid receptors (MOR)) was 3040 nM, the “protection against neuronal damage” value [5] was “considerable protection against neuronal damage” and the “nuclei in ventral nerve cord (DAPI)” value (C. elegans [6]) was “preserved the nucleus”. For the same molecule, the IC50 [7] was 430 nM, the “neuroprotection (propidium iodide fluorescence intensity vs NMDA group)” value [8] was “significant neuroprotective effect” and the “mitochondrial density (fluorescence intensity)” value (C. elegans [9]) was “dense presence of mitochondria”.

Reference: paper PMC11520585 (BMC Neuroscience, 2024)
